# Results as given in patent US5998468A, “Furanone endothelin antagonists” (Warner-Lambert Company, priority 1997, dated 1999).
# Entries after “also recorded” stand apart in the source; their conditions may differ. Read-outs that look alike come from different tables or passages of the source. Where a SMILES comes first, the peptide text is derived from it. [ ]: non-standard residue; d: D form.
# Assays:
# ETA = settings: mouse endotoxic shock; cited from earlier work
# [1] = tested on: early cerebral vasospasm following SAH; settings: cited from earlier work; for early cerebral vasospasm following SAH: rat
# [2] = tested on: early cerebral vasospasm following SAH; settings: rabbit; cited from earlier work
# endothelin receptor ETB = test: Endothelin receptor binding assay-B (ERBA-B), [125I]-ET-1 binding in rat cerebellar membranes; settings: [125I]-ET-1 25 pM, rat cerebellar membranes (also modified with human ETB in CHO-K1)
# From the text: (§1) The compounds of Formula I are valuable antagonists of endothelin.
# Count filters for radioactivity in gamma counter.
# The above process has also been modified by using human recombinant CHO-K1 cells.
# The tissue used for human ETB was recombinant human ETB receptor expressed in CHO-K1 cells (chinese hamster ovary cells). The gene for human ETB receptor was cloned and inserted into the pRc-CMW expression vector, then transfected into CHO-K1 cells by electroporation. For binding assays, membranes (0.7 mg protein) of CHO-K1 cells expressing recombinant human ETB receptor were used.
# endothelin receptor ETA = target: T1, endothelin receptor ETA (Oryctolagus cuniculus, UniProt A5A8K3); type: binding; settings: [125I]-ET-1 25 pM, rabbit renal artery vascular smooth muscle cells; read-out: ERBA-A IC50
# T1 sequence (A5A8K3 21-427): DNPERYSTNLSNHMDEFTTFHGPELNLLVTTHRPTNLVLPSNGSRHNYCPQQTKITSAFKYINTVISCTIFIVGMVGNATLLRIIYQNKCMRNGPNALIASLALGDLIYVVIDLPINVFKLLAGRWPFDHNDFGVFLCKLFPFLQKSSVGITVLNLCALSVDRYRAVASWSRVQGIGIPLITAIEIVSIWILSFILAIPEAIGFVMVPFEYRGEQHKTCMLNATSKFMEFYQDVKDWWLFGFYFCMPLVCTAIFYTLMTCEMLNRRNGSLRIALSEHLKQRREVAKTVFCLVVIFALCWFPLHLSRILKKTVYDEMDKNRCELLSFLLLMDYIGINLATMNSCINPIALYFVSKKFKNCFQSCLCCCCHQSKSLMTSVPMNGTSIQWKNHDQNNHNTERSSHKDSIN
# From the text: as §1
# basilar artery = settings: after 7 days, canine two-hemorrhage model of SAH; cited from earlier work
compound,measurement,setting,value
CC(C)C[C@@H]1NC(=O)[C@@H](C(C)C)NC(=O)[C@@H]2CCCN2C(=O)[C@@H](CC(=O)O)NC(=O)[C@@H](Cc2c[nH]c3ccccc23)NC1=O [BQ-123] (cyclo(L[dW][dD]P[dV])),survival rate,ETA,significantly increased
same,early cerebral vasospasm following SAH,[1],prevent early cerebral vasospasm following subarachnoid hemorrhage; also recorded: prevents early cerebral vasospasm
same,early cerebral vasospasm following SAH,[2],prevents early cerebral vasospasm
"COc1ccc(C2OC(=O)C(c3ccc4c(c3)OCO4)=C2Cc2ccccc2)cc1 (centres unmarked) [Example 1, 3-Benzo[1,3]dioxol-5-yl-4-benzyl-5-(4-methoxyphenyl)-5H-furan-2-one]",IC50,endothelin receptor ETB,> 2500 nM
same,IC50,endothelin receptor ETA,700 nM
"COc1ccc(C2OC(=O)C(c3ccc4c(c3)OCO4)=C2Cc2cc(OC)c(OC)c(OC)c2)cc1 (centres unmarked) [Example 2, 3-Benzo[1,3]dioxol-5-yl-5-(4-methoxyphenyl)-4-(3,4,5-trimethoxybenzyl)-5H-furan-2-one]",IC50,endothelin receptor ETA,30 nM
"COc1ccc(CC2=C(c3ccc4c(c3)OCO4)C(=O)OC2c2cc(OC)c(OC)c(OC)c2)cc1 (centres unmarked) [Example 3, 3-Benzo[1,3]dioxol-5-yl-4-(4-methoxybenzyl)-5-(3,4,5-trimethoxyphenyl)-5H-furan-2-one]",IC50,endothelin receptor ETA,> 100 nM
"COc1ccc(C2OC(=O)C(c3ccc4c(c3)OCO4)=C2Cc2ccc(OC)c(C)c2)cc1 (centres unmarked) [Example 4, 3-Benzo[1,3]dioxol-5-yl-4-(4-methoxy-3-methylbenzyl)-5-(4-methoxyphenyl)-5H-furan-2-one]",IC50,endothelin receptor ETA,200 nM
COc1cccc(Oc2c(NS(=O)(=O)c3ccc(C(C)(C)C)cc3)ncnc2OCCO)c1 [Ro 46-2005],systemic arterial blood pressure,[1]; rat SAH,no significant effect
same,early cerebral vasospasm following SAH,[1],prevent early cerebral vasospasm
FR 139317,vasoconstriction of the basilar artery,basilar artery,significantly inhibited
